Consider 3 molecules from paper PMC10645073, “Interaction of gallium, indium and vanadyl diacetylcurcumin complexes with lysozyme: mechanistic aspects and evaluation of antiamyloidogenic activity” (Royal Society Open Science, 2023).

Data set [1] concerns the target T1, hen egg white lysozyme (HEWL) (Gallus gallus, UniProt P00698).
T1 construct: whose 129 amino acid residues are linked together by four disulfide bridges to form a single polypeptide chain; purchased Sigma-Aldrich L6876; host or cells: hen egg white (natural source, per the protein's name)
Put plainly: Intrinsic fluorescence quenching of HEWL (Stern-Volmer, double logarithmic and van't Hoff analysis). Type of data set: binding. As to conditions: for KSV (Stern-Volmer quenching constant): HEWL 3 µM; for kq (bimolecular quenching rate constant): kq = KSV/τ0, τ0 10^−8 s. How it is done: The intrinsic fluorescence spectra of HEWL (3 µM) in the absence and presence of Ga(DAC)3, In(DAC)3 and VO(DAC)2 complexes were collected using a Varian Cary Eclipse fluorescence spectrophotometer equipped with a 10 mm quartz cell by adjusting the excitation wavelength to 295 nm and setting the width of both excitation and emission slits at 5 nm. After adding the mentioned concentrations of the metal complexes of diacetylcurcumin to HEWL solution, the samples were scanned in the wavelength range of 300–500 nm. Corrections were made for the inner filter effect on the fluorescence spectra according to the following equation: Fcor=Fobs×10^(Aex+Aem)/2, where Fcor is corrected fluorescence intensity, Fobs is the observed (uncorrected) fluorescence intensity, Aex is the absorbance at the fluorescence excitation wavelength and Aem is the absorbance at the selected fluorescence emission wavelength.
The fluorescence quenching process of HEWL in the presence of three metal complexes of diacetylcurcumin can be quantified according to the well-known Stern-Volmer equation:3.1 F0/F=1+KSV[Q]=1+kqτ0[Q],
where F0 and F represent the intrinsic emission intensities of HEWL fluorophores, respectively, in the absence and presence of the metal complexes of diacetylcurcumin, and [Q] is the molar concentration of quencher. KSV, kq and τ0 denote the Stern-Volmer quenching constant, bimolecular quenching rate constant, and the average lifetime of fluorophore without quencher, respectively. The value of KSV, as a parameter of the sensitivity of the fluorophore to a quencher, can be estimated from the slope of the linear plot of F0/F as a function of [Q] (figure 2d,e,f; electronic supplementary material, figure S1). To obtain more accurate quantification of fluorescence data, the total area of the emission fluorescence peaks (S0 and S) was applied instead of the emission fluorescence intensities (F0 and F). The fluorescence quenching phenomenon can be generally divided into two distinct classes: static quenching and dynamic quenching. Owing to the reciprocal and direct correlations between the KSV parameter and temperature, respectively, for static and dynamic quenching, the observed trend in the KSV value versus temperature can be used to distinguish these mechanisms from each other. In dynamic quenching, an increase in temperature leads to faster diffusion of molecules by which weakly bound nonfluorescent complexes are further dissociated, and the value of KSV increases. From the data recorded in table 1, it can be seen that the KSV value of HEWL/Ga(DAC)3 and HEWL/In(DAC)3 systems decreases as temperature increases, while it increases with increasing temperature for the HEWL/VO(DAC)2 system. […] Considering a lifetime value of 10^−8 s for the native fluorophores, [27] the equation kq = KSV/τ0 gives the kq values greater than the diffusion-limited quenching value of 2.0 × 10 ^+ 10 M^−1 s^−1 for all systems.
Assuming that all the binding sites of HEWL are identical and independent and an equilibrium interaction is established between HEWL and each of the metal complexes of diacetylcurcumin, the fluorescence quenching process can be further analysed by the following double logarithmic equation:3.2 log(F0−F/F)=logKb+nlog[Q], where Kb and n represent the binding constant and number of binding sites on each HEWL molecule, respectively. Plotting log[(F0 − F)/F] versus log[Q] produces a straight line whose slope and intercept can be used respectively to estimate the values of n and Kb (electronic supplementary material, figures S2A, S2B, S2C and S3). […] In other words, the resulting bioconjugates are the product of the interaction between HEWL and the metal complexes of diacetylcurcumin with a 1 : 1 stoichiometry. […]

The target in data set [2] is T1, hen egg white lysozyme (HEWL). Put plainly: Synchronous fluorescence spectroscopy of HEWL. As to conditions: Δλ = 60 nm. The class given is binding. How it is done: To obtain synchronous fluorescence spectra, simultaneous scanning of excitation and emission monochromators was performed in such a way as to maintain a constant wavelength interval between them. The changes in the molecular microenvironment of tyrosine and tryptophan residues of HEWL were monitored by fixing the wavelength interval (Δλ = λem − λex) individually at 15 and 60 nm, respectively. The concentrations of HEWL and three metal complexes of diacetylcurcumin were the same as those mentioned for the intrinsic fluorescence spectroscopy.
To investigate the effect of the metal complexes of diacetylcurcumin on the conformation of tyrosine and tryptophan residues of HEWL, synchronous fluorescence spectra of HEWL were recorded alone and in the presence of the metal complexes (electronic supplementary material, figure S5). By fixing the Δλ value, i.e. the difference between excitation and emission wavelengths, at 15 and 60 nm, synchronous fluorescence spectroscopy provides useful information on the microenvironmental changes of tyrosine and tryptophan residues of proteins, respectively. As shown in the electronic supplementary material, figure S5, all three metal complexes of diacetylcurcumin strongly quench the emission fluorescence of HEWL at both 15 and 60 nm. […] At Δλ = 15 nm, no shift in the emission maximum of HEWL is observed, whereas at Δλ = 60 nm, a 2 nm blue shift is observed in the emission spectrum of tryptophan residues of the protein after the interaction with the metal complexes of diacetylcurcumin except for the VO(DAC)2 complex. […] Overall, it can be concluded that the formation of HEWL/metal complex bioconjugates is associated with the binding of three metal complexes of diacetylcurcumin to both tyrosine and tryptophan residues in which the conformational changes can occur only around the tryptophan residues of the protein. It should be noted that the reduction in the polarity of the microregions surrounding tryptophan residues of the protein has already been observed by the intrinsic emission fluorescence titrations (see §3.1.1.).

For the next data set, the system named is mouse lymphoma cells. More on the design: method as in PMID 16171869. As to conditions: read-out: IC50 cytotoxicity; cited from earlier work.
In another data set the test system is Aβ42. As to conditions: copper-induced Aβ42 cross-linking; cited from earlier work.

For the molecule `COc1cc(C=CC(=O)C=C([O-])C=Cc2ccc(OC(C)=O)c(OC)c2)ccc1OC(C)=O.COc1cc(C=CC(=O)C=C([O-])C=Cc2ccc(OC(C)=O)c(OC)c2)ccc1OC(C)=O.COc1cc(C=CC(=O)C=C([O-])C=Cc2ccc(OC(C)=O)c(OC)c2)ccc1OC(C)=O.[Ga+3]` [Ga(DAC)3, gallium diacetylcurcumin], in data set [1] (T 293 K), the “n (number of binding sites on each HEWL molecule)” value is given as “(0.92 ± 0.02)”, the “ΔG^0 (Gibbs free energy change of binding)” value was -5.081 ± 0.139 kcal/mol, the “KSV (Stern-Volmer quenching constant)” value is “(1.46 ± 0.02) × 10^+4 M^−1” and the “kq (bimolecular quenching rate constant)” value is given as “(1.46 ± 0.02) × 10^+12 M^−1 s^−1”. In data set [1] (T 303 K), the “n (number of binding sites on each HEWL molecule)” value is listed as “(0.80 ± 0.02)”, the “ΔG^0 (Gibbs free energy change of binding)” value was -5.057 ± 0.139 kcal/mol, the “KSV (Stern-Volmer quenching constant)” value was “(1.30 ± 0.01) × 10^+4 M^−1” and the “kq (bimolecular quenching rate constant)” value is recorded as “(1.30 ± 0.01) × 10^+12 M^−1 s^−1”. For the same molecule, in data set [1] (T 308 K), the “n (number of binding sites on each HEWL molecule)” value is “(0.89 ± 0.02)”, the “ΔG^0 (Gibbs free energy change of binding)” value was -5.045 ± 0.139 kcal/mol, the “KSV (Stern-Volmer quenching constant)” value was “(1.25 ± 0.01) × 10^+4 M^−1” and the “kq (bimolecular quenching rate constant)” value is given as “(1.25 ± 0.01) × 10^+12 M^−1 s^−1”. Moreover, in data set [1] (excitation 295 nm, emission maximum 345 nm), the “blue shift of HEWL emission maximum on quenching” value was found to be 4 nm. Also, in data set [1] (from KSV versus temperature and kq), the fluorescence quenching mechanism entry is listed as “static mechanism”. For the same molecule, the “main forces / modes of interaction stabilizing the bioconjugate” value in data set [1] (from signs of ΔH^0 and ΔS^0) was “van der Waals interactions and hydrogen bonds”. In addition, the “binding constant, order of magnitude” value in data set [1] (summary of table 1) is 10^+3 M^−1. In data set [1] (van't Hoff plot over 293–308 K), the “ΔH^0 (enthalpy change of binding)” value is -5.817 ± 0.0406 kcal/mol and the “ΔS^0 (entropy change of binding)” value is listed as −10.50 ± 0.55 J mol^−1 K^−1. The “microenvironment of tryptophan residues of HEWL” value in data set [2] is recorded as “more hydrophobic”. For the same molecule, the concentration for half-maximal inhibition (IC50) (in general, the concentration that inhibits the measured activity by half) in the data set on mouse lymphoma cells was 25 to 30 µM.
As for `COc1cc(C=CC(=O)CC(=O)C=Cc2ccc(O)c(OC)c2)ccc1O` [curcumin, 1,7-bis(4-hydroxy-3-methoxyphenyl)-1,6-heptadiene-3,5-dione], in the data set on mouse lymphoma cells, the IC50 was 25 to 30 µM.
With CRANAD-17, in the data set with Aβ42, the “effect on Aβ amyloid formation” value was “considerably reduces Aβ amyloid formation”.
